Experimental data as given in paper PMC11995216, “End-to-End Backbone Cyclization Enhances Passive Permeability of bRo5 Oligomeric Depsipeptides with Nonlinear Size Dependence” (ACS Medicinal Chemistry Letters, 2025).
Values joined by “and” are separate entries in the source; they are usually repeats but may differ in a detail not shown here. Equal entries are not always repeated. Where two headings read alike, the source gives them in different places.

Key:
PAMPA [1] = conditions: calculated using Supplement Equation 1, UV detection
PAMPA [2] = test system: PAMPA
PAMPA [3] = conditions: UV detection
PAMPA [4] = test system: PAMPA; remark: listed apart in the source
PAMPA [5] = test system: PAMPA; remark: listed apart in the source
[6] = PAMPA, permeability assay across an artificial membrane; conditions: for Diffusion (%): PAMPA percent diffusion; for Acceptor Concentration, Ave: after incubation; for Δ % diffusion: increase: difference between percent diffusion of macrocycle vs linear counterpart
[7] = calculated using Supplement Equation 1, UV detection
[8] = UV detection
[9] = PAMPA, (acceptor + donor)/total analyte, C0 500 uM
[10] = PAMPA, Papp, ratio-based method, mean ± SD, C0 500 uM, UV detection
[11] = PAMPA, Recovery (%), PAMPA, (acceptor + donor)/total analyte, C0 500 uM

CCCCC[C@@H]1OC(=O)[C@@H](C)N(C)C(=O)[C@H](CCCCC)OC(=O)[C@@H](C)N(C)C(=O)[C@H](CCCCC)OC(=O)[C@@H](C)N(C)C1=O [Compound C1.3, ent-verticilide B1]
%T (PAMPA [1]; Well 1 / %T, Well 1): 0.44% (2×) and 0.41%
%T (PAMPA [1]; Well 2 / %T, Well 2): 0.51% and 0.43% (2×)
%T (PAMPA [1]; Well 3 / %T, Well 3): 0.54% and 0.51% and 0.49%
%T (PAMPA [1]; Well 4 / %T, Well 4): 0.48% (2×) and 0.45%
%T (PAMPA [1]; Well 5 / %T, Well 5): 0.48% (2×) and 0.47%
Papp (PAMPA [2]; Papp (x 10^-6 cm/s) – ELSD Detection / [row 1], ELSD Detection): 4.16 ×10⁻⁶ cm/s
Papp (PAMPA [2]; Papp (x 10^-6 cm/s) – ELSD Detection / [row 2], ELSD Detection): 4.41 ×10⁻⁶ cm/s
Papp (PAMPA [2]; Papp (x 10^-6 cm/s) – ELSD Detection / [row 3], ELSD Detection): 3.96 ×10⁻⁶ cm/s
Papp (PAMPA [2]; Papp (x 10^-6 cm/s) – ELSD Detection / [row 4], ELSD Detection): 4.13 ×10⁻⁶ cm/s
Papp (PAMPA [2]; Papp (x 10^-6 cm/s) – ELSD Detection / [row 5], ELSD Detection): 4.45 ×10⁻⁶ cm/s
Papp (PAMPA [2]; Papp (x 10^-6 cm/s) – ELSD Detection / [row 6], ELSD Detection): 4.03 ×10⁻⁶ cm/s
Papp (PAMPA [2]; Papp (x 10^-6 cm/s) – ELSD Detection / [row 9], ELSD Detection): 4.31 ×10⁻⁶ cm/s
Papp (PAMPA [2]; Papp (x 10^-6 cm/s) – ELSD Detection / [row 10], ELSD Detection): 4.39 ×10⁻⁶ cm/s
Papp (PAMPA [2]; Papp (x 10^-6 cm/s) – ELSD Detection / [row 11], ELSD Detection): 3.96 ×10⁻⁶ cm/s
Papp (PAMPA [2]; Papp (x 10^-6 cm/s) – ELSD Detection / [row 12], ELSD Detection): 4.4 ×10⁻⁶ cm/s
Papp (PAMPA [2]; Papp (x 10^-6 cm/s) – ELSD Detection / [row 13], ELSD Detection): 5.05 ×10⁻⁶ cm/s
Papp (PAMPA [2]; Papp (x 10^-6 cm/s) – ELSD Detection / [row 14], ELSD Detection): 4.44 ×10⁻⁶ cm/s
Papp (PAMPA [2]; Papp (x 10^-6 cm/s) – ELSD Detection / [row 15], ELSD Detection): 4.01 ×10⁻⁶ cm/s
Papp (PAMPA [2]; Papp (x 10^-6 cm/s) – UV Detection / [row 1], UV Detection): 3.32 ×10⁻⁶ cm/s
Papp (PAMPA [2]; Papp (x 10^-6 cm/s) – UV Detection / [row 2], UV Detection): 4.01 ×10⁻⁶ cm/s
Papp (PAMPA [2]; Papp (x 10^-6 cm/s) – UV Detection / [row 3], UV Detection): 4.37 ×10⁻⁶ cm/s
Papp (PAMPA [2]; Papp (x 10^-6 cm/s) – UV Detection / [row 4], UV Detection): 3.67 ×10⁻⁶ cm/s
Papp (PAMPA [2]; Papp (x 10^-6 cm/s) – UV Detection / [row 5], UV Detection): 3.75 ×10⁻⁶ cm/s
Papp (PAMPA [2]; Papp (x 10^-6 cm/s) – UV Detection / [row 7], UV Detection): 3.19 ×10⁻⁶ cm/s
Papp (PAMPA [2]; Papp (x 10^-6 cm/s) – UV Detection / [row 8], UV Detection): 4 ×10⁻⁶ cm/s
Papp (PAMPA [2]; Papp (x 10^-6 cm/s) – UV Detection / [row 9], UV Detection): 3.36 ×10⁻⁶ cm/s
Papp (PAMPA [2]; Papp (x 10^-6 cm/s) – UV Detection / [row 10], UV Detection): 3.7 ×10⁻⁶ cm/s
Papp (PAMPA [2]; Papp (x 10^-6 cm/s) – UV Detection / [row 11], UV Detection): 3.24 ×10⁻⁶ cm/s
Papp (PAMPA [2]; Papp (x 10^-6 cm/s) – UV Detection / [row 12], UV Detection): 3.17 ×10⁻⁶ cm/s
Papp (PAMPA [2]; Papp (x 10^-6 cm/s) – UV Detection / [row 13], UV Detection): 3.78 ×10⁻⁶ cm/s
Papp (PAMPA [2]; Papp (x 10^-6 cm/s) – UV Detection / [row 14], UV Detection): 3.81 ×10⁻⁶ cm/s
Papp (PAMPA [2]; Papp (x 10^-6 cm/s) – UV Detection / [row 15], UV Detection): 3.57 ×10⁻⁶ cm/s
% recovery (PAMPA [3]; Well 1 / %R, Well 1): 97% and 94% and 93%
% recovery (PAMPA [3]; Well 2 / %R, Well 2): 94% and 92%
% recovery (PAMPA [3]; Well 3 / %R, Well 3): 88% and 89% and 94%
% recovery (PAMPA [3]; Well 4 / %R, Well 4): 94% and 89% and 90%
% recovery (PAMPA [3]; Well 5 / %R, Well 5): 87%
Acceptor Concentration (PAMPA [4]; Acceptor Concentration (uM) – ELSD Detection / [row 1]): 102 µM
Acceptor Concentration (PAMPA [4]; Acceptor Concentration (uM) – ELSD Detection / [row 2]): 106 µM
Acceptor Concentration (PAMPA [4]; Acceptor Concentration (uM) – ELSD Detection / [row 3]): 96 µM
Acceptor Concentration (PAMPA [4]; Acceptor Concentration (uM) – ELSD Detection / [row 4]): 101 µM
Acceptor Concentration (PAMPA [4]; Acceptor Concentration (uM) – ELSD Detection / [row 5]): 106 µM
Acceptor Concentration (PAMPA [4]; Acceptor Concentration (uM) – ELSD Detection / [row 6]): 98.1 µM
Acceptor Concentration (PAMPA [4]; Acceptor Concentration (uM) – ELSD Detection / [row 7]): 103 µM
Acceptor Concentration (PAMPA [4]; Acceptor Concentration (uM) – ELSD Detection / [row 8]): 90.6 µM
Acceptor Concentration (PAMPA [4]; Acceptor Concentration (uM) – ELSD Detection / [row 9]): 103 µM
Acceptor Concentration (PAMPA [4]; Acceptor Concentration (uM) – ELSD Detection / [row 10]): 101 µM
Acceptor Concentration (PAMPA [4]; Acceptor Concentration (uM) – ELSD Detection / [row 11]): 96.3 µM
Acceptor Concentration (PAMPA [4]; Acceptor Concentration (uM) – ELSD Detection / [row 12]): 107 µM
Acceptor Concentration (PAMPA [4]; Acceptor Concentration (uM) – ELSD Detection / [row 13]): 112 µM
Acceptor Concentration (PAMPA [4]; Acceptor Concentration (uM) – ELSD Detection / [row 14]): 102 µM
Acceptor Concentration (PAMPA [4]; Acceptor Concentration (uM) – ELSD Detection / [row 15]): 94.9 µM
Acceptor Concentration (PAMPA [4]; Acceptor Concentration (uM) – UV Detection / [row 1]): 89.6 µM
Acceptor Concentration (PAMPA [4]; Acceptor Concentration (uM) – UV Detection / [row 2]): 100 µM
Acceptor Concentration (PAMPA [4]; Acceptor Concentration (uM) – UV Detection / [row 3]): 101 µM
Acceptor Concentration (PAMPA [4]; Acceptor Concentration (uM) – UV Detection / [row 4]): 93.8 µM
Acceptor Concentration (PAMPA [4]; Acceptor Concentration (uM) – UV Detection / [row 5]): 88.6 µM
Acceptor Concentration (PAMPA [4]; Acceptor Concentration (uM) – UV Detection / [row 6]): 79.9 µM
Acceptor Concentration (PAMPA [4]; Acceptor Concentration (uM) – UV Detection / [row 7]): 82.2 µM
Acceptor Concentration (PAMPA [4]; Acceptor Concentration (uM) – UV Detection / [row 8]): 95.3 µM
Acceptor Concentration (PAMPA [4]; Acceptor Concentration (uM) – UV Detection / [row 9]): 83.1 µM
Acceptor Concentration (PAMPA [4]; Acceptor Concentration (uM) – UV Detection / [row 10]): 88.1 µM
Acceptor Concentration (PAMPA [4]; Acceptor Concentration (uM) – UV Detection / [row 11]): 84 µM
Acceptor Concentration (PAMPA [4]; Acceptor Concentration (uM) – UV Detection / [row 12]): 81.4 µM
Acceptor Concentration (PAMPA [4]; Acceptor Concentration (uM) – UV Detection / [row 13]): 95.3 µM
Acceptor Concentration (PAMPA [4]; Acceptor Concentration (uM) – UV Detection / [row 14]): 92.2 µM
Acceptor Concentration (PAMPA [4]; Acceptor Concentration (uM) – UV Detection / [row 15]): 85.4 µM
donor concentration after incubation (PAMPA [5]; Well 1 / [donor]): 396 µM and 390 µM and 380 µM
donor concentration after incubation (PAMPA [5]; Well 2 / [donor]): 370 µM and 376 µM and 374 µM
donor concentration after incubation (PAMPA [5]; Well 3 / [donor]): 341 µM and 351 µM and 372 µM
donor concentration after incubation (PAMPA [5]; Well 4 / [donor]): 377 µM and 362 µM and 356 µM
donor concentration after incubation (PAMPA [5]; Well 5 / [donor]): 347 µM and 349 µM and 351 µM
Diffusion (%) ([6]; C0 500 uM): 18.04% and 18.0 ± 1.5%
Recovery (%) [6, 9]: 91%
Papp at 500 uM ([6]; PAMPA, Papp, Ave, ELSD detection, C0 500 uM): 4.24 ×10⁻⁶ cm/s
Papp at 500 uM [6, 10]: 3.64 ± 0.42 ×10⁻⁶ cm/s
recovery at 500 uM [6, 11]: 91.2%
Acceptor Concentration, Ave ([6]; PAMPA, ELSD detection, C0 500 uM): 101.2 µM
Acceptor Concentration, Ave ([6]; PAMPA, UV detection, C0 500 uM): 89.4 µM
Δ % diffusion [6]: ↑3%

CCCCC[C@H](OC(=O)[C@@H](C)N(C)C(=O)[C@H](CCCCC)OC(=O)[C@@H](C)N(C)C(=O)[C@H](CCCCC)OC(=O)[C@@H](C)N(C)C(=O)[C@H](CCCCC)OC(=O)[C@@H](C)N(C)C(=O)[C@H](CCCCC)OC(=O)[C@@H](C)N(C)C(=O)[C@H](CCCCC)OC(=O)[C@@H](C)N(C)C(=O)OC(C)(C)C)C(=O)OCc1ccccc1 [Compound L1.6]
%T ([7]; Well 1 / %T, Well 1): 0.32% and 0.44%
%T ([7]; Well 2 / %T, Well 2): 0.37% and 0.33%
%T ([7]; Well 3 / %T, Well 3): 0.44% and 0.4%
%T ([7]; Well 4 / %T, Well 4): 0.41%
%T ([7]; Well 5 / %T, Well 5): 0.37%
Papp (PAMPA [2]; Papp (x 10^-6 cm/s) / experiment 1, UV detection): 0.4 ×10⁻⁶ cm/s
Papp (PAMPA [2]; Papp (x 10^-6 cm/s) / experiment 2, UV detection): 0.44 ×10⁻⁶ cm/s
Papp (PAMPA [2]; Papp (x 10^-6 cm/s) / experiment 3, UV detection): 0.41 ×10⁻⁶ cm/s
Papp (PAMPA [2]; Papp (x 10^-6 cm/s) / experiment 5, UV detection): 0.44 ×10⁻⁶ cm/s
Papp (PAMPA [2]; Papp (x 10^-6 cm/s) / experiment 6, UV detection): 0.43 ×10⁻⁶ cm/s
Papp (PAMPA [2]; Papp (x 10^-6 cm/s) / experiment 7, UV detection): 0.41 ×10⁻⁶ cm/s
Papp (PAMPA [2]; Papp (x 10^-6 cm/s) / experiment 8, UV detection): 0.43 ×10⁻⁶ cm/s
Papp (PAMPA [2]; Papp (x 10^-6 cm/s) / experiment 10, UV detection): 0.4 ×10⁻⁶ cm/s
% recovery ([8]; Well 1 / %R, Well 1): 87% and 82%
% recovery ([8]; Well 2 / %R, Well 2): 80% and 87%
% recovery ([8]; Well 3 / %R, Well 3): 85% and 82%
% recovery ([8]; Well 4 / %R, Well 4): 83%
% recovery ([8]; Well 5 / %R, Well 5): 81% and 88%
donor concentration after incubation (Well 1 / [donor]): 435 µM and 410 µM
donor concentration after incubation (Well 2 / [donor]): 398 µM and 434 µM
donor concentration after incubation (Well 3 / [donor]): 424 µM and 410 µM
donor concentration after incubation (Well 4 / [donor]): 416 µM and 415 µM
donor concentration after incubation (Well 5 / [donor]): 403 µM and 438 µM
Diffusion (%) ([6]; C0 500 uM): < 5%
Recovery (%) [6, 9]: 84%
Papp [6, 10]: 0.42 ×10⁻⁶ cm/s
recovery [6, 11]: 83.7%
Acceptor Concentration, Ave ([6]; PAMPA, UV detection, C0 500 uM): < 25 µM
Δ % diffusion [6]: ↑2%
